Results published in ChEMBL document CHEMBL6177960, “Rational design, optimization, and biological evaluation of novel pyrrolo-pyridone derivatives as potent and orally active Cbl-b inhibitors” (Eur J Med Chem, 2025).

Assays:
in vivo [1] = settings: male, CD-1(ICR), mouse, iv, 1 mg/kg
Description: C0 in male CD-1(ICR) mouse at 1 mg/kg, iv measured after 1440 mins by LC-MS/MS analysis

in vivo [2] = settings: male, CD-1(ICR), mouse, po, 10 mg/kg
[3] = mouse, in vivo, iv, 1 mg/kg, 24 h
in vivo [4] = settings: male, CD-1(ICR), mouse, iv, 1 mg/kg; remark: listed apart in the source
Description: Clearance in male CD-1(ICR) mouse at 1 mg/kg, iv measured after 1440 mins by LC-MS/MS analysis

in vivo [5] = settings: male, CD-1(ICR), mouse, iv, 1 mg/kg; remark: listed apart in the source
Description: Volume of distribution at steady state in male CD-1(ICR) mouse at 1 mg/kg, iv measured after 1440 mins by LC-MS/MS analysis

in vivo [6] = settings: male, CD-1(ICR), mouse, po, 10 mg/kg; remark: listed apart in the source
Description: AUCinfinity in male CD-1(ICR) mouse at 10 mg/kg, po measured after 1440 mins by LC-MS/MS analysis

in vivo [7] = settings: male, CD-1(ICR), mouse, po, 10 mg/kg; remark: listed apart in the source
Description: Half-life in male CD-1(ICR) mouse at 10 mg/kg, po measured after 1440 mins by LC-MS/MS analysis

in vivo [8] = settings: male, CD-1(ICR), mouse, po, 10 mg/kg; remark: listed apart in the source
in vivo [9] = settings: male, CD-1(ICR), mouse, po, 10 mg/kg; remark: listed apart in the source
Description: MRTinfinity in male CD-1(ICR) mouse at 10 mg/kg, po measured after 1440 mins by LC-MS/MS analysis

in vivo [10] = settings: male, CD-1(ICR), mouse, po, 10 mg/kg; remark: listed apart in the source
in vivo [11] = settings: male, CD-1(ICR), mouse, iv, 1 mg/kg; remark: listed apart in the source
Description: Apparent volume of distribution in male CD-1(ICR) mouse at 1 mg/kg, iv measured after 1440 mins by LC-MS/MS analysis

in vivo [12] = settings: male, CD-1(ICR), mouse, iv, 1 mg/kg; remark: listed apart in the source
Description: Half-life in male CD-1(ICR) mouse at 1 mg/kg, iv measured after 1440 mins by LC-MS/MS analysis

in vivo [13] = settings: male, CD-1(ICR), mouse, iv, 1 mg/kg; remark: listed apart in the source
Description: MRTinfinity in male CD-1(ICR) mouse at 1 mg/kg, iv measured after 1440 mins by LC-MS/MS analysis

in vivo [14] = settings: male, CD-1(ICR), mouse, iv, 1 mg/kg; remark: listed apart in the source
Description: AUCinfinity in male CD-1(ICR) mouse at 1 mg/kg, iv measured after 1440 mins by LC-MS/MS analysis

in vivo [15] = settings: male, CD-1(ICR), mouse, po, 10 mg/kg; remark: listed apart in the source
Description: AUClast in male CD-1(ICR) mouse at 10 mg/kg, po measured after 1440 mins by LC-MS/MS analysis

[16] = mouse, in vivo, po, 10 mg/kg, 24 h
CT26 [17] = experiment: Antitumor activity against mouse CT26 cells implanted in female BALB/C mouse model assessed as tumor growth inhibition at 50 mg/kg, po administered via gavage once daily and measured after 14 days relative to control; settings: 336 h, read-out: TGI
in vivo [18] = settings: male, CD-1(ICR), mouse, iv, 1 mg/kg; remark: listed apart in the source
Description: AUClast in male CD-1(ICR) mouse at 1 mg/kg, iv measured after 1440 mins by LC-MS/MS analysis

[19] = Toxicity in female BALB/C mouse model implanted with mouse CT26 cells assessed as effect on body weight at 30 mg/kg, po administered via gavage once daily and measured after 14 days; settings: in vivo, 336 h
in vitro [20] = settings: rhesus monkey, hepatocytes
[21] = Inhibition of immunosuppressive activity in PGE2-induced human T cells assessed as increase in cell proliferation preincubated with PGE2 for 15 mins followed by compound administration for 60 mins and measured after 72 hrs of anti-human CD28 antibody by flow cytometric analysis
[22] = Plasma protein binding in Sprague-Dawley rat at 5 uM incubated for 5 hrs by equilibrium dialysis based LC-MS analysis
[23] = Protein binding in CD-1 mouse plasma assessed as unbound fraction at 5 uM incubated for 5 hrs by equilibrium dialysis based LC-MS analysis
CT26 [24] = experiment: Antitumor activity against mouse CT26 cells implanted in female BALB/C mouse model assessed as tumor growth inhibition at 30 mg/kg, po administered via gavage once daily and measured after 14 days relative to control; settings: 336 h, read-out: TGI
in vitro [25] = settings: rat, hepatocytes
4T1 = experiment: Antitumor activity against mouse 4T1 cells implanted in female BALB/C mouse model assessed as tumor growth inhibition at 30 mg/kg, po relative to control; settings: 4T1, po, read-out: TGI
in vitro [26] = settings: mouse, hepatocytes
[27] = Protein binding in cynomolgus monkey plasma assessed as unbound fraction at 5 uM incubated for 5 hrs by equilibrium dialysis based LC-MS analysis
[28] = Inhibition of immunosuppressive activity in PGE2-induced human T cells assessed as increase in IL2 production preincubated with PGE2 for 15 mins followed by compound administration for 60 mins and measured after 48 hrs of anti-human CD28 antibody by ELISA; settings: T-cell
in vitro [29] = settings: dog, hepatocytes
[30] = Inhibition of immunosuppressive activity in PGE2-induced human T cells assessed as increase in IFNgamma production preincubated with PGE2 for 15 mins followed by compound administration for 60 mins and measured after 48 hrs of anti-human CD28 antibody by ELISA; settings: T-cell
[31] = Toxicity in female BALB/C mouse model implanted with mouse CT26 cells assessed as body weight gain at 10 mg/kg, po administered via gavage once daily and measured after 14 days; type: organism-based; settings: in vivo, 336 h, time 14 day
[32] = Protein binding in Beagle dog plasma assessed as unbound fraction at 5 uM incubated for 5 hrs by equilibrium dialysis based LC-MS analysis
CT26 [33] = experiment: Antitumor activity against mouse CT26 cells implanted in female BALB/C mouse model assessed as tumor growth inhibition at 10 mg/kg, po administered via gavage once daily and measured after 14 days relative to control; settings: 336 h, read-out: TGI
[34] = Protein binding in Sprague-Dawley rat plasma assessed as unbound fraction at 5 uM incubated for 5 hrs by equilibrium dialysis based LC-MS analysis
[35] = Plasma protein binding in human at 5 uM incubated for 5 hrs by equilibrium dialysis based LC-MS analysis
in vitro [36] = settings: dog, hepatocytes; remark: listed apart in the source
[37] = Plasma protein binding in Beagle dog at 5 uM incubated for 5 hrs by equilibrium dialysis based LC-MS analysis
[38] = Plasma protein binding in CD-1 mouse at 5 uM incubated for 5 hrs by equilibrium dialysis based LC-MS analysis
[39] = Plasma protein binding in cynomolgus monkey at 5 uM incubated for 5 hrs by equilibrium dialysis based LC-MS analysis
[40] = Protein binding in human plasma assessed as unbound fraction at 5 uM incubated for 5 hrs by equilibrium dialysis based LC-MS analysis
in vitro [41] = settings: human, hepatocytes

C[C@H]1CCCN(Cc2cc3c(C4CC4)cn(-c4cccc([C@]5(c6nncn6C)C[C@@H](C)C5)c4)c(=O)c3[nH]2)C1
C0 at 24 h (in vivo [1]): 395 ng/mL
bioavailability at 24 h (in vivo [2]): 27.2%
%AUCextra [3]: 1.18%
clearance at 24 h (in vivo [4]): 82.1 mL/min/kg
Vd at 24 h (in vivo [5]): 3.19 L/kg
AUC(0-inf) at 24 h (in vivo [6]): 293 ng·h/mL
half-life at 24 h (in vivo [7]): 140 min
Cmax at 24 h (in vivo [8]): 77.9 ng/mL
MRT inf at 24 h (in vivo [9]): 253 min
Tmax at 24 h (in vivo [10]): 120 min
Vd at 24 h (in vivo [11]): 4.82 L/kg
half-life at 24 h (in vivo [12]): 40.8 min
MRT inf at 24 h (in vivo [13]): 39.6 min
AUC(0-inf) at 24 h (in vivo [14]): 205 ng·h/mL
AUC(0-t) at 24 h (in vivo [15]): 243 ng·h/mL
%AUCextra [16]: 14.2%
inhibition in vivo at 50 mg/kg (CT26 [17]): 51%
AUC(0-t) at 24 h (in vivo [18]): 202 ng·h/mL

C[C@H]1CCCN(Cc2cc3c(C(F)(F)F)cn(-c4cccc([C@]5(c6nncn6C)C[C@@H](C)C5)c4)c(=O)c3[nH]2)C1
Activity [19]: Non-toxic
half-life at 2 h, 2 µM (in vitro [20]): 12.2 min
EC50 [21]: 1.4 nM
C0 at 24 h (in vivo [1]): 406 ng/mL
bioavailability at 24 h (in vivo [2]): 27.2%
fraction unbound at 5 h, 5 µM [22]: 0.0419
fraction unbound at 5 h, 5 µM [23]: 0.0217
inhibition in vivo at 30 mg/kg (CT26 [24]): 56.1%
%AUCextra [3]: 1.2%
half-life at 2 h, 2 µM (in vitro [25]): 40.7 min
clearance at 24 h (in vivo [4]): 57.8 mL/min/kg
inhibition in vivo at 30 mg/kg (4T1): 31.3%
Vd at 24 h (in vivo [5]): 2.91 L/kg
AUC(0-inf) at 24 h (in vivo [6]): 796 ng·h/mL
half-life at 2 h, 2 µM (in vitro [26]): 14.3 min
fraction unbound at 5 h, 5 µM [27]: 0.0179
half-life at 24 h (in vivo [7]): 69 min
EC50 [28]: 65.7 nM
CLint scaled at 2 h, 2 µM (in vitro [29]): 39.4 mL/min/kg
EC50 [30]: 170 nM
Cmax at 24 h (in vivo [8]): 480 ng/mL
Activity [31]: Toxic
MRT inf at 24 h (in vivo [9]): 89.4 min
Tmax at 24 h (in vivo [10]): 21.6 min
Vd at 24 h (in vivo [11]): 4.66 L/kg
half-life at 24 h (in vivo [12]): 55.7 min
fraction unbound at 5 h, 5 µM [32]: 0.0394
inhibition in vivo at 10 mg/kg (CT26 [33]): 12.5%
fraction unbound at 5 h, 5 µM [34]: 0.0419
fraction unbound at 5 h, 5 µM [35]: 0.0379
MRT inf at 24 h (in vivo [13]): 60.6 min
AUC(0-inf) at 24 h (in vivo [14]): 292 ng·h/mL
half-life at 2 h, 2 µM (in vitro [36]): 24.1 min
AUC(0-t) at 24 h (in vivo [15]): 789 ng·h/mL
fraction unbound at 5 h, 5 µM [37]: 0.0394
fraction unbound at 5 h, 5 µM [38]: 0.0217
fraction unbound at 5 h, 5 µM [39]: 0.0179
%AUCextra [16]: 0.94%
AUC(0-t) at 24 h (in vivo [18]): 289 ng·h/mL
fraction unbound at 5 h, 5 µM [40]: 0.0379
half-life at 2 h, 2 µM (in vitro [41]): 81.8 min
